This note sets out measurements from patent US20250136619A1, “HETEROBIFUNCTIONAL COMPOUNDS AND THEIR USE IN TREATING DISEASE” (HALDA THERAPEUTICS OPCO, INC., priority 2021, published 2025).

For one assay, the target named is BRD4-BD1 (Homo sapiens (Human), UniProt O60885). Kind of assay: bromoKdELECT assay for binding affinity to BRD4-BD1. As to the method: (§1) Compounds were tested using a bromoKdELECT assay. T7 phage strains displaying bromodomains were grown in parallel in 24-well blocks in an E. coli host derived from the BL21 strain. E. coli were grown to log-phase and infected with T7 phage from a frozen stock (multiplicity of infection=0.4) and incubated with shaking at 32° C. until lysis (90-150 minutes). The lysates were centrifuged (5,000×g) and filtered (0.2 μm) to remove cell debris. Streptavidin-coated magnetic beads were treated with biotinylated small molecule or acetylated peptide ligands for 30 minutes at room temperature to generate affinity resins for bromodomain assays. The liganded beads were blocked with excess biotin and washed with blocking buffer (SeaBlock (Pierce), 1% BSA, 0.05% Tween 20, 1 mM DTT) to remove unbound ligand and to reduce nonspecific phage binding. Binding reactions were assembled by combining bromodomains, liganded affinity beads, and test compounds in 1×binding buffer (17% SeaBlock, 0.33×PBS, 0.04% Tween 20, 0.02% BSA, 0.004% Sodium azide, 7.4 mM DTT). Test compounds were prepared as 1000X stocks in 100% DMSO. Kds were determined using an 11-point 3-fold compound dilution series with one DMSO control point. All compounds for Kd measurements are distributed by acoustic transfer (non-contact dispensing) in 100% DMSO. The compounds were then diluted directly into the assays such that the final concentration of DMSO was 0.09%. All reactions performed in polypropylene 384-well plates. Each was a final volume of 0.02 ml. The assay plates were incubated at room temperature with shaking for 1 hour and the affinity beads were washed with wash buffer (1×PBS, 0.05% Tween 20). The beads were then resuspended in elution buffer (1×PBS, 0.05% Tween 20, 2 μM non-biotinylated affinity ligand) and incubated at room temperature with shaking for 30 minutes. The bromodomain concentration in the eluates was measured by qPCR.

The target of the next assay is BRD4-BD2 (Homo sapiens (Human), UniProt O60885). The experiment in a line: bromoKdELECT assay for binding affinity to BRD4-BD2. How it is done: as §1
The target of the next assay is androgen receptor (Homo sapiens, UniProt P10275). Kind of assay: Radioligand ([3H]methyltrienolone) assay for binding affinity to androgen receptor. To be noted: cell cytosol, 1 nM [3H]methyltrienolone. How it is done:
Fractions of cell cytosol ([…]) were incubated for 24 hr at 4° C. with 1 nM [^3H]methyltrienolone in the absence or presence of the test compound in a buffer containing 25 mM Hepes-Tris (pH 7.4), 1 mM EDTA, 10 mM Na2MoO4, 2 mM DTT, 5 μM triamcinolone acetonide, and 10% glycerol. Nonspecific binding was determined in the presence of 1 μM testosterone. Following incubation, the samples were filtered rapidly under vacuum through glass fiber filters (GF/B, Packard) presoaked with 0.3% PEI and rinsed several times with ice-cold 50 mM Tris —HCl using a 96-sample cell harvester (Unifilter, Packard). The filters were dried then counted for radioactivity in a scintillation counter (Topcount, Packard) using a scintillation cocktail (Microscint 0, Packard). The results are expressed as a percent inhibition of the control radioligand specific binding. The standard reference compound is testosterone, which is tested in each experiment at several concentrations to obtain a competition curve from which its IC50 is calculated.

The target in another assay is PLK1 (Homo sapiens (Human), UniProt P53350). Kind of assay: KdELECT assay for binding affinity to PLK1. As to the method:
Compounds were tested using a KdELECT assay. Kinase-tagged T7 phage strains were prepared in an E. coli host derived from the BL21 strain. E. coli were grown to log-phase and infected with T7 phage and incubated with shaking at 32° C. until lysis. The lysates were centrifuged and filtered to remove cell debris. The remaining kinases were produced in HEK-293 cells and subsequently tagged with DNA for qPCR detection. Streptavidin-coated magnetic beads were treated with biotinylated small molecule ligands for 30 minutes at room temperature to generate affinity resins for kinase assays. The liganded beads were blocked with excess biotin and washed with blocking buffer (SeaBlock (Pierce), 1% BSA, 0.05% Tween 20, 1 mM DTT) to remove unbound ligand and to reduce non-specific binding. Binding reactions were assembled by combining kinases, liganded affinity beads, and test compounds in 1×binding buffer (20% SeaBlock, 0.17×PBS, 0.05% Tween 20, 6 mM DTT). Test compounds were prepared as 111X stocks in 100% DMSO. Kd values were determined using an 11-point 3-fold compound dilution series with three DMSO control points. All compounds for Kd measurements are distributed by acoustic transfer (non-contact dispensing) in 100% DMSO.
The compounds were then diluted directly into the assays such that the final concentration of DMSO was 0.9%. […] The kinase concentration in the eluates was measured by qPCR.

In the next assay the target is KIF11 (Homo sapiens (Human), UniProt P52732). The experiment in a line: Enzyme-coupled ATPase assay for inhibition of KIF11. The format is biochemical. The settings on record: KIF11 ATPase rate, 1 mM ATP. How it is done:
The ATPase rate for Kif11 was monitored using an enzyme-coupled assay. Porcine brain microtubules (Cat #MT002) were purchased from Cytoskeleton (Denver, CO) and polymerized as per manufacturer's instructions and stored at 1 mg/ml at −80° C. GST-tagged Kif11/Eg5 (Cat #EG01-XL) and the Kinesin ELIPA Biochem Kit (Cat #BK060) was also purchased from Cytoskeleton. Taxol, microtubules, 7-methylthioguanosine (MESG), and purine nucleoside phosphorylase (PNP) were added to final concentrations of […], 0.05 mg/mL, […], 1U/m, 1 mM in EPLIA Reaction Buffer and allowed to incubate at room temperature for 15 minutes under rocking. Kif11 was then added at a final concentration of […] and allowed to incubate at room temperature for an additional 15 minutes. Master mix ([…]) was added to a black 384-well plate (Corning 3575), to which […] of DMSO or compound were added to appropriate wells. Plates were incubated at room temperature for 2 hours. ATPase reactions were initiated by addition of 1 mM ATP and monitored by OD340 every 1 minute over the course of 2 hours. The rate of the reaction was taken from the linear part of the resulting curve. IC50 was determined by plotting inhibitor concentration v. ATPase rate.

The next assay addresses BTK (Homo sapiens (Human), UniProt Q06187). The experiment in a line: KdELECT assay for binding affinity to BTK. The essentials:
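Competition binding of test compound against bead-immobilized biotinylated ligand; kinase as T7 phage fusion or HEK-293-expressed DNA-tagged protein. 11-point 3-fold dilution, 0.9% DMSO final, 1 h room temperature with shaking. Bound kinase eluted with 0.5 μM non-biotinylated ligand and quantified by qPCR; Kd derived.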

Each structure is given as a SMILES string.

KIF11, sequence (P52732 1-368): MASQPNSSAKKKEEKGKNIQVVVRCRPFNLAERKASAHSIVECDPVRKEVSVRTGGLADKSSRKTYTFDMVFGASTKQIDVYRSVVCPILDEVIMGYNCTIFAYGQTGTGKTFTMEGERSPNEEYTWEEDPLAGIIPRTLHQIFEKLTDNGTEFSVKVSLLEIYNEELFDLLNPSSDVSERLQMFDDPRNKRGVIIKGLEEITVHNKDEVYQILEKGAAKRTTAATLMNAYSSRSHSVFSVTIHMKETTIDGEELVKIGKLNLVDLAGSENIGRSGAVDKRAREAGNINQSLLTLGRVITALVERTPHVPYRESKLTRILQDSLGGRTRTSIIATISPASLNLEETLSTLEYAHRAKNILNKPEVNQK
BTK, sequence (Q06187 whole entry, the tested form may be a part): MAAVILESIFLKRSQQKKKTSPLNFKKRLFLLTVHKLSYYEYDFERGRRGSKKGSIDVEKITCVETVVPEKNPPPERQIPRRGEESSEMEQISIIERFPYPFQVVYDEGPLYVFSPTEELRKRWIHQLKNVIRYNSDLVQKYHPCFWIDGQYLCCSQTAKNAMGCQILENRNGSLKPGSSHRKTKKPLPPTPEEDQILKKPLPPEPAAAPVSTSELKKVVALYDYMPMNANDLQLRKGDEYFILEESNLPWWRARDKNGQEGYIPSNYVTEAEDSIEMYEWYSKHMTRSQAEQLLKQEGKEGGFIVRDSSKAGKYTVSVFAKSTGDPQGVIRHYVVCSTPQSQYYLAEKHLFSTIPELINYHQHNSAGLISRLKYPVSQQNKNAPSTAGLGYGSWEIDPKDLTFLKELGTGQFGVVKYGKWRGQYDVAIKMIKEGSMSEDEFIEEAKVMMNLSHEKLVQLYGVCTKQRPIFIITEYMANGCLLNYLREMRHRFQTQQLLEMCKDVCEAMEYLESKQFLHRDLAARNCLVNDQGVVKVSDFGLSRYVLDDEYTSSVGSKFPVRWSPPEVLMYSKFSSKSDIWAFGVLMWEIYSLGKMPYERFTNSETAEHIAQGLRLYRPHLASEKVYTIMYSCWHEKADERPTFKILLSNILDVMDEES
PLK1, sequence (P53350 whole entry): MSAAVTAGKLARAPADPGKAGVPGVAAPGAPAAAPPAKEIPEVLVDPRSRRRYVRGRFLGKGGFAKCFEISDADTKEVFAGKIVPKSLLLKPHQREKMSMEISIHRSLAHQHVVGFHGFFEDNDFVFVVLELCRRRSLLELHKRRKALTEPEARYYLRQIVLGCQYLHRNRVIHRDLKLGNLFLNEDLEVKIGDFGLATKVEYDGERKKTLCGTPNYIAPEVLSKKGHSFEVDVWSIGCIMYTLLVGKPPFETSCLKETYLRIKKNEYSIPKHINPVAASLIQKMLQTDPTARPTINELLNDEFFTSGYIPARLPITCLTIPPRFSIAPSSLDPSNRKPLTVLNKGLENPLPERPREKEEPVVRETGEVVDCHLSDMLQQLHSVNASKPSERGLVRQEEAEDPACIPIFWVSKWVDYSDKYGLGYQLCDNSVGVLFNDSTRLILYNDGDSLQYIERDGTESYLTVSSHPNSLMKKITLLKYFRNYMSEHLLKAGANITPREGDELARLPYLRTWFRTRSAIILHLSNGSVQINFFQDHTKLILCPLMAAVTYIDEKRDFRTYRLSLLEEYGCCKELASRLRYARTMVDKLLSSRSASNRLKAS
androgen receptor, sequence (P10275 whole entry, looked up): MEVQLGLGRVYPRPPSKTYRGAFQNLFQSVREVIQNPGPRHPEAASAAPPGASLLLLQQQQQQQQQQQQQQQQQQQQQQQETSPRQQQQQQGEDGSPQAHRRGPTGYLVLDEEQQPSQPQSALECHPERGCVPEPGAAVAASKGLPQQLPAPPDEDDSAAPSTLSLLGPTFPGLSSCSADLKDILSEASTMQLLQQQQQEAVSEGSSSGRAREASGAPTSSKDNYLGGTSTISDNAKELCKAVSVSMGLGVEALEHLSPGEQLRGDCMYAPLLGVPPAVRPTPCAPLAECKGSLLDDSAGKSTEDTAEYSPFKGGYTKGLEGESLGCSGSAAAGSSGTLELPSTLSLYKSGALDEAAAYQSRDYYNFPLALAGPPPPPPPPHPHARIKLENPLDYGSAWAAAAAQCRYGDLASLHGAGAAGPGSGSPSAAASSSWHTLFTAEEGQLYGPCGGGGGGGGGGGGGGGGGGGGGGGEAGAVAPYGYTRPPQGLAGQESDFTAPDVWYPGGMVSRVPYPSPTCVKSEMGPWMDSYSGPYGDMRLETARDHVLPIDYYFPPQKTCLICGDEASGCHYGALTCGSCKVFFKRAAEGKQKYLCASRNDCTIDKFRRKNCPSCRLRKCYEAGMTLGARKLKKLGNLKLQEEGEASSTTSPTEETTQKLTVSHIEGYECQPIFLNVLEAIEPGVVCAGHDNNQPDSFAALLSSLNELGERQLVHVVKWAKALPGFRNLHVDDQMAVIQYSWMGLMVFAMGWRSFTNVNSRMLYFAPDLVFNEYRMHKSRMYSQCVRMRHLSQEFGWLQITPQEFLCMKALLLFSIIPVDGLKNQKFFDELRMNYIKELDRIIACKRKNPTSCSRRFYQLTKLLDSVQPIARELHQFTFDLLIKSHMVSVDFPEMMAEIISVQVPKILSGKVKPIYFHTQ

In the case of `Cc1sc2c(c1C)C(c1ccc(Cl)cc1)=N[C@@H](CC(=O)NCCOCCOCCOCCOCCOCCOCCOc1ccc(C(=O)NC3C(C)(C)C(Oc4ccc(C#N)c(Cl)c4)C3(C)C)cc1)c1nnc(C)n1-2` (stereo partly shown) [Compound I-34], the equilibrium dissociation constant (Kd) at BRD4-BD1 was 50 to 500 nM; at BRD4-BD2, 50 to 500 nM; at androgen receptor, less than 50 nM.

With `CCC1C(=O)N(C)c2cnc(Nc3ccc(C(=O)NCCN(C)C(=O)CO[C@H]4CC[C@H]5[C@@H]6CC[C@H]7CC(=O)CC[C@]7(C)[C@H]6CC[C@]45C)cc3OC)nc2N1C1CCCC1` (stereo partly shown) [Compound I-41], the equilibrium dissociation constant (Kd) on PLK1 is less than 50 nM.

Compound `CN(C/C=C/C(=O)N1CCC[C@@H](n2nc(-c3ccc(Oc4ccccc4)cc3)c3c(N)ncnc32)C1)CCOCCOCCOCCOCCON(C)C(=O)N1N=C(c2cc(F)ccc2F)SC1(CCCN)c1ccccc1` (stereo partly shown) [Compound I-50] showed a half-maximal inhibitory concentration (IC50) against KIF11 of less than 50 nM.

For `CN(C/C=C/C(=O)N1CCC[C@@H](n2nc(-c3ccc(Oc4ccccc4)cc3)c3c(N)ncnc32)C1)CCOCCOCCOCCOCCOCCOCCON(C)C(=O)N1N=C(c2cc(F)ccc2F)SC1(CCCN)c1ccccc1` (stereo partly shown) [Compound I-52], the IC50 on KIF11 was less than 50 nM. This compound came in with a Kd on BTK of less than 50 nM.

`CN(OCCOCCOCCOCCOCCOCCOCCOCCOCCOC/C=C/C(=O)N1CCC[C@@H](n2nc(-c3ccc(Oc4ccccc4)cc3)c3c(N)ncnc32)C1)C(=O)N1N=C(c2cc(F)ccc2F)SC1(CCCN)c1ccccc1` (stereo partly shown) [Compound I-53] displayed an IC50 against KIF11 of 50 to 500 nM. This compound came in with a dissociation constant Kd on BTK of less than 50 nM.

In turn, `CN(C/C=C/C(=O)N1CCC[C@@H](n2nc(-c3ccc(Oc4ccccc4)cc3)c3c(N)ncnc32)C1)CCOCCOCCOCCOCCOCCOCCOCCOCCON(C)C(=O)N1N=C(c2cc(F)ccc2F)SC1(CCCN)c1ccccc1` (stereo partly shown) [Compound I-54] displayed an IC50 against KIF11 of less than 50 nM.

The term Kd denotes a measure of binding affinity in units of concentration. One may read the IC50 as the concentration that inhibits the measured activity by half.
